Measured values as given in ChEMBL document CHEMBL3879911, “Heteroaryl compounds useful as inhibitors of E1 activating enzymes” (2008).

These compounds were tested against T1, NEDD8 activating enzyme (Homo sapiens, UniProt Q8TBC4) (assay: Inhibition of recombinant human NAEalpha/N-terminal His-tagged NAEbeta expressed in baculovirus infected insect Sf9 cells using N-terminal FLAG tagged Nedd8 as substrate incubated for 105 mins in presence of N-terminal GST-tagged Ubc12 by FRET assay).
T1 sequence (Q8TBC4 whole entry): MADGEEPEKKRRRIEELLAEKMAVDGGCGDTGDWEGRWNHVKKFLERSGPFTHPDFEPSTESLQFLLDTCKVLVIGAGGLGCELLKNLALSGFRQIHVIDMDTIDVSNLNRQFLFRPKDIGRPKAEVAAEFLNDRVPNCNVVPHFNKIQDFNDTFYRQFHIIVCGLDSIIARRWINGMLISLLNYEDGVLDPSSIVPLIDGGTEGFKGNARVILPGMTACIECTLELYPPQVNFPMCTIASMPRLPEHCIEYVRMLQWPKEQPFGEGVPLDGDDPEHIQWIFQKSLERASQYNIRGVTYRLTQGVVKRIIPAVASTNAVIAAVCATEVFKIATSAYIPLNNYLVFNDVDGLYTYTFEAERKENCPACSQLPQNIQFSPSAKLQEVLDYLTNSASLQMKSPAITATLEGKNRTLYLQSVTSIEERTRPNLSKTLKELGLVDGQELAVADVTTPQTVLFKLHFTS
T1 sequence (Q13564 whole entry): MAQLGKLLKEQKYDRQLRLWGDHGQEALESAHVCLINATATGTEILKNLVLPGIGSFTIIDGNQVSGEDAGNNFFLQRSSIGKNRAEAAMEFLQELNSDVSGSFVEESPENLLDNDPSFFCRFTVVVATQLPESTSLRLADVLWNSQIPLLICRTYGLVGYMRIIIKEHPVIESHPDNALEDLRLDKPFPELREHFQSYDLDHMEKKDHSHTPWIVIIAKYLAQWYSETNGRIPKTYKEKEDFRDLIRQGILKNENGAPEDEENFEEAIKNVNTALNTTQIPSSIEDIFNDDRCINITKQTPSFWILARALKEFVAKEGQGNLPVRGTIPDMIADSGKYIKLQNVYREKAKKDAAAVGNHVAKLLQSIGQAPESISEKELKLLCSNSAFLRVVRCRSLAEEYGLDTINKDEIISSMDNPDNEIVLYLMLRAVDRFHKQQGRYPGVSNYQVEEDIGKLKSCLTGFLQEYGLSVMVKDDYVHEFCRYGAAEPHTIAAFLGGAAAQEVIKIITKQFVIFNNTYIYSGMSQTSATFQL
For CN(c1cc(N[C@H]2CCc3ccccc32)ncn1)[C@@H]1C[C@H](COS(N)(=O)=O)[C@@H](O)[C@H]1O, the IC50 was ≤ 0.5 µM. In the case of NS(=O)(=O)OC[C@@H]1C[C@@H](Nc2c(Cl)cnc3[nH]c(-c4cccc5ccccc45)nc23)C[C@@H]1O, the IC50 is reported as ≤ 0.5 µM. In the case of Cc1cccc(Sc2nc3ncnc(O[C@@H]4C[C@@H](COS(N)(=O)=O)[C@@H](O)C4)c3[nH]2)c1, the IC50 is reported as ≤ 0.5 µM. OC[C@@H]1C[C@@H](Nc2ncnc3[nH]c(-c4cccc5c4CCCC5)nc23)C[C@@H]1O gave an IC50 of 0.5 to 10 µM. For NS(=O)(=O)OC[C@@H]1C[C@@H](Oc2ncnc3nc(-c4cncc5ccccc45)[nH]c23)C[C@@H]1O, the IC50 was ≤ 0.5 µM. NS(=O)(=O)OC[C@@H]1C[C@@H](Oc2ccnc(N[C@H]3CCc4ccccc43)c2)C[C@@H]1O gave an IC50 of 0.5 to 10 µM. With NS(=O)(=O)OC[C@@H]1C[C@@H](Nc2ncnc3[nH]c(-c4ccc(Cl)cc4)nc23)C[C@@H]1O the IC50 was ≤ 0.5 µM. For CC1(C)C[C@H](Nc2cc(O[C@@H]3C[C@@H](COS(N)(=O)=O)[C@@H](O)C3)ncn2)c2ccccc21, the IC50 was ≤ 0.5 µM. NS(=O)(=O)OC[C@H]1C[C@@H](O)[C@H](Nc2cc(N[C@H]3CCc4ccccc43)ncn2)C1 was tested, and the IC50 was > 10 µM. In the case of COc1cccc(-c2nc3c(N[C@@H]4C[C@@H](COS(N)(=O)=O)[C@@H](O)C4)ncnc3[nH]2)c1, the IC50 is reported as ≤ 0.5 µM. With NS(=O)(=O)OC[C@@H]1C[C@@H](Nc2ncnc3[nH]c(-c4cccc5ccccc45)nc23)C[C@@H]1O the IC50 was ≤ 0.5 µM. CN(Cc1ccccc1)c1cc(N[C@@H]2C[C@H](COS(N)(=O)=O)[C@@H](O)[C@H]2O)ncn1 was tested, and the IC50 was > 10 µM. With NS(=O)(=O)OC[C@@H]1C[C@@H](Oc2cc(N[C@H]3CCCc4ccccc43)ncn2)C[C@@H]1O the IC50 was ≤ 0.5 µM. For COc1cccc(OC)c1-c1nc2c(N[C@@H]3C[C@@H](COS(N)(=O)=O)[C@@H](O)C3)ncnc2[nH]1, the IC50 was ≤ 0.5 µM. In the case of CN(C)C(=O)[C@H]1Cc2ccccc2[C@H]1Nc1cc(O[C@@H]2C[C@@H](COS(N)(=O)=O)[C@@H](O)C2)ncn1, the IC50 is reported as 0.5 to 10 µM. In the case of CO[C@H]1Cc2ccccc2[C@H]1Nc1ncnc(N[C@@H]2C[C@@H](COS(N)(=O)=O)[C@@H](O)C2)n1, the IC50 is reported as ≤ 0.5 µM. With Cc1c(N[C@H]2CCc3ccccc32)ncnc1O[C@@H]1C[C@@H](COS(N)(=O)=O)[C@@H](O)C1 the IC50 was > 10 µM. In the case of NS(=O)(=O)OC[C@H]1C[C@@H](Nc2cc(N[C@H]3CCCc4ccccc43)ncn2)[C@H](O)[C@@H]1O, the IC50 is reported as ≤ 0.5 µM. CO[C@H]1Cc2ccccc2[C@H]1Nc1cc(N[C@@H]2C[C@H](COS(N)(=O)=O)[C@@H](O)[C@H]2O)ncn1 was tested, and the IC50 was ≤ 0.5 µM. With NS(=O)(=O)OC[C@@H]1C[C@@H](Nc2ncnc3[nH]c(-c4cccc5c4OCCO5)nc23)C[C@@H]1O the IC50 was ≤ 0.5 µM. With Cc1ccccc1-c1nc2c(N[C@@H]3C[C@@H](COS(N)(=O)=O)[C@@H](O)C3)ncnc2[nH]1 the IC50 was ≤ 0.5 µM. NS(=O)(=O)OC[C@@H]1C[C@@H](Nc2ncnc3[nH]c(-c4cccc5c4CCCC5)nc23)C[C@@H]1O was tested, and the IC50 was ≤ 0.5 µM. CN(c1ncnc2c1nc(-c1ccccc1)n2C)[C@@H]1C[C@@H](COS(N)(=O)=O)[C@@H](O)C1 showed an IC50 of 0.5 to 10 µM. For NS(=O)(=O)OC[C@@H]1C[C@@H](Nc2ncnc3nc(-c4cccc5cccnc45)[nH]c23)C[C@@H]1O, the IC50 was ≤ 0.5 µM. NS(=O)(=O)OC[C@@H]1C[C@@H](Oc2cc(NCc3cccc4ccccc34)ncn2)C[C@@H]1O was tested, and the IC50 was ≤ 0.5 µM. CO[C@H]1Cc2ccccc2[C@H]1Nc1cc(O[C@@H]2C[C@@H](COS(N)(=O)=O)[C@@H](O)C2)ncn1 was tested, and the IC50 was ≤ 0.5 µM. With NS(=O)(=O)OC[C@@H]1C[C@@H](Nc2ncnc3[nH]c(C4CCCCC4)nc23)C[C@@H]1O the IC50 was ≤ 0.5 µM. NS(=O)(=O)OC[C@@H]1C[C@@H](Nc2ncnc3[nH]c(-c4cccc5ccccc45)cc23)C[C@@H]1O was tested, and the IC50 was ≤ 0.5 µM. NS(=O)(=O)OC[C@@H]1C[C@@H](Nc2ncnc3[nH]c(-c4ccccc4-c4ccccc4)nc23)C[C@@H]1O gave an IC50 of 0.5 to 10 µM. NS(=O)(=O)OC[C@@H]1C[C@@H](Oc2cc(N3Cc4ccccc4C3)ncn2)C[C@@H]1O gave an IC50 of 0.5 to 10 µM. In the case of NS(=O)(=O)OC[C@H]1C[C@@H](Nc2cc(N[C@@H]3CCC[C@H]3OCc3ccccc3)ncn2)[C@H](O)[C@@H]1O, the IC50 is reported as > 10 µM. CC1(C)C[C@H](Nc2ncnc(N[C@@H]3C[C@@H](COS(N)(=O)=O)[C@@H](O)C3)c2F)c2ccccc21 was tested, and the IC50 was ≤ 0.5 µM. Work on NS(=O)(=O)OC[C@H]1CC[C@H](Oc2ncnc3[nH]c(-c4cccc5ccccc45)nc23)C1 yielded an IC50 of 0.5 to 10 µM. For NS(=O)(=O)OC[C@@H]1C[C@@H](Nc2ncnc3[nH]c(-c4ccccc4)cc23)C[C@@H]1O, the IC50 was ≤ 0.5 µM. In the case of NS(=O)(=O)OC[C@H]1C[C@@H](Nc2cc(N[C@H]3CCc4ccccc43)ncn2)[C@H](O)[C@@H]1O, the IC50 is reported as ≤ 0.5 µM. With NS(=O)(=O)OC[C@@H]1C[C@@H](Nc2ncnc3nc(-c4ccc(OCc5ccccc5)cc4)[nH]c23)C[C@@H]1O the IC50 was ≤ 0.5 µM. With NS(=O)(=O)OC[C@H]1C[C@@H](Nc2cc(Nc3cccc4c3CCCC4)ncn2)[C@H](O)[C@@H]1O the IC50 was ≤ 0.5 µM. NS(=O)(=O)OC[C@@H]1C[C@@H](Oc2cc(NC3CCCC3)ncn2)C[C@@H]1O was tested, and the IC50 was 0.5 to 10 µM. With Cc1nc(NCc2ccccc2)cc(N[C@@H]2C[C@H](COS(N)(=O)=O)[C@@H](O)[C@H]2O)n1 the IC50 was > 10 µM. With NS(=O)(=O)OC[C@H]1C[C@@H](Nc2ccnc(NCc3ccccc3)n2)[C@H](O)[C@@H]1O the IC50 was 0.5 to 10 µM. NS(=O)(=O)OC[C@@H]1C[C@@H](Nc2ncnc3[nH]c(-c4ccccc4Cl)nc23)C[C@@H]1O was tested, and the IC50 was ≤ 0.5 µM. CN(C)c1ccccc1-c1nc2c(N[C@@H]3C[C@@H](COS(N)(=O)=O)[C@@H](O)C3)ncnc2[nH]1 was tested, and the IC50 was ≤ 0.5 µM. With NS(=O)(=O)OC[C@@H]1C[C@@H](Oc2cc(N[C@H]3CCc4ccccc43)ncn2)C[C@@H]1O the IC50 was ≤ 0.5 µM. For NS(=O)(=O)OC[C@@H]1C[C@@H](Oc2ccnc3[nH]c(-c4cccc5ccccc45)nc23)C[C@@H]1O, the IC50 was ≤ 0.5 µM. NS(=O)(=O)OC[C@H]1C[C@@H](Nc2cc(N[C@H]3CCc4ccccc43)ncn2)C[C@@H]1O was tested, and the IC50 was ≤ 0.5 µM. In the case of NS(=O)(=O)OC[C@@H]1C[C@@H](Oc2ncnc3[nH]c(-c4ccccc4)nc23)C[C@@H]1O, the IC50 is reported as ≤ 0.5 µM. In the case of NS(=O)(=O)OC[C@@H]1C[C@@H](Oc2cc(OCc3ccc4ccccc4c3)ncn2)C[C@@H]1O, the IC50 is reported as 0.5 to 10 µM. With NS(=O)(=O)OC[C@@H]1C[C@@H](Nc2ncnc3nc(-c4cccc5c4OCC5)[nH]c23)C[C@@H]1O the IC50 was ≤ 0.5 µM. NS(=O)(=O)OC[C@@H]1C[C@@H](Oc2cc(-c3ccccc3)ncn2)C[C@@H]1O was tested, and the IC50 was 0.5 to 10 µM. CN(C)c1ccc(-c2nc3c(N[C@@H]4C[C@@H](COS(N)(=O)=O)[C@@H](O)C4)ncnc3[nH]2)c2ccccc12 was tested, and the IC50 was ≤ 0.5 µM. With CO[C@H]1CC(C)(C)c2ccccc2[C@H]1Nc1cc(O[C@@H]2C[C@@H](COS(N)(=O)=O)[C@@H](O)C2)ncn1 the IC50 was ≤ 0.5 µM. For NS(=O)(=O)OC[C@H]1C[C@@H](Nc2cc(CCc3ccccc3)ncn2)[C@H](O)[C@@H]1O, the IC50 was 0.5 to 10 µM. OC[C@@H]1C[C@@H](Nc2ncnc3[nH]c(-c4cccc5c4OCCO5)nc23)C[C@@H]1O was tested, and the IC50 was 0.5 to 10 µM. In the case of NS(=O)(=O)OC[C@@H]1C[C@@H](Nc2ncnc3[nH]c(-c4cccc5c4oc4ccccc45)nc23)C[C@@H]1O, the IC50 is reported as ≤ 0.5 µM. With NS(=O)(=O)OC[C@@H]1C[C@@H](Oc2ncnc3[nH]c(-c4cccc5ccccc45)nc23)C[C@@H]1O the IC50 was ≤ 0.5 µM. NS(=O)(=O)OC[C@@H]1C[C@@H](Oc2ncnc3nc(-c4ccc(N5CCCC5)c5ccccc45)[nH]c23)C[C@@H]1O was tested, and the IC50 was ≤ 0.5 µM. In the case of NS(=O)(=O)OC[C@H]1C[C@@H](NC(=O)c2ccccn2)[C@H](O)[C@@H]1O, the IC50 is reported as > 10 µM. In the case of CO[C@H]1Cc2ccccc2[C@H]1Nc1cc(O[C@@H]2C[C@@H](CNS(N)(=O)=O)[C@@H](O)C2)ncn1, the IC50 is reported as ≤ 0.5 µM. NS(=O)(=O)OC[C@@H]1C[C@@H](Nc2cc(N[C@H]3CCc4ccccc43)nc(=O)[nH]2)C[C@@H]1O showed an IC50 of 0.5 to 10 µM. In the case of NS(=O)(=O)OC[C@H]1C[C@@H](Nc2cc(N[C@@H]3CCc4ccccc43)ncn2)[C@H](O)[C@@H]1O, the IC50 is reported as ≤ 0.5 µM. With CC1(C)Cc2cccc(-c3nc4c(N[C@@H]5C[C@@H](COS(N)(=O)=O)[C@@H](O)C5)ncnc4[nH]3)c2O1 the IC50 was ≤ 0.5 µM. CO[C@H]1Cc2ccccc2[C@H]1Nc1ncnc(O[C@@H]2C[C@@H](COS(N)(=O)=O)[C@@H](O)C2)c1F was tested, and the IC50 was ≤ 0.5 µM. CN(C)c1ccc(-c2nc3ncnc(O[C@@H]4C[C@@H](COS(N)(=O)=O)[C@@H](O)C4)c3[nH]2)c2ccccc12 was tested, and the IC50 was ≤ 0.5 µM. Work on NS(=O)(=O)OC[C@@H]1C[C@@H](Oc2ncnc3c2ncn3Cc2ccccc2)C[C@@H]1O yielded an IC50 of 0.5 to 10 µM. For NS(=O)(=O)OC[C@@H]1C[C@@H](Nc2cc(N[C@H]3CCc4ccccc43)ncn2)[C@H](O)[C@@H]1O, the IC50 was ≤ 0.5 µM. In the case of NS(=O)(=O)OC[C@@H]1C[C@@H](Nc2ncnc3[nH]c(-c4ccccc4OC(F)(F)F)nc23)C[C@@H]1O, the IC50 is reported as ≤ 0.5 µM. For NS(=O)(=O)OC[C@H]1C[C@@H](NC(=O)c2ccncc2)[C@H](O)[C@@H]1O, the IC50 was 0.5 to 10 µM.
